The test has as its system Platelet Activating Factor induced platelet aggregation. The test can be described thus: Platelet aggregation inhibiting effect of rabbit by PAF (platelet rich plasma, Chrono-log aggregometer). The settings on record: for IC50: read-out: IC50, 50% of the inhibition concentration, platelet aggregation inhibiting effect; for platelet aggregation inhibiting activity compared with Ginkgolide B: rabbit PRP, PAF-induced, comparison in words. Format: cell-based, New Zealand White Rabbit. As for the experimental part:
The blood gathering in the ear artery of the New Zealand White Rabbit of weight 3~3.5 kg was mixed with 3.8% sodium citrate solution at the ratio of 1:9. After centrifuging for 10 minutes at 1000 rpm, the upper Platelet Rich Plasma(PRP) layer was taken. Again after centrifuging for 10 minutes at 3000 rpm, the upper Platelet Poor Plasma(PPP) was taken.
After measuring the platelet figures of the PRP using the Coulter counter, the platelet figures was adjusted to 3×10^5 /μl by diluting with PPP.
The ginkgolide derivatives which were obtained from the above example 1 and 5~9 was investigated platelet aggregation inhibiting effect by that 270 μl of PRP and 30 μl of the derivative solution was treated using the Chrono-log aggregometer which the light tansmittance of PPP was fixed to 100% and the light tansmittance of PRP was fixed to 0% and then 30 μl of Platelet Activating Factor of 5×10^-9 M and 5×10^-8 M concentration was added.
Then, IC50, 50% of the inhibition concentration, of derivatives was searched.

Setting [1] is: Oryctolagus cuniculus, Platelet.
Setting [2] is: Oryctolagus cuniculus, Platelet, rabbit PRP adjusted to 3×10^5 /μl platelets, aggregation induced by PAF of 5×10^-9 M and 5×10^-8 M.
[3] abbreviates: rabbit PRP adjusted to 3×10^5 /μl platelets, aggregation induced by PAF of 5×10^-9 M and 5×10^-8 M.

Read-outs that look alike come from different tables or passages of the source.

As to `C[C@H]1C(=O)OC2C1C13OC4OC(=O)C(O)C45C(C(C)(C)C)CC(OC1=O)C35C2O` (stereo partly drawn) [formula (I-b), 3-dehydroxy-14-epi-Ginkgolide B], the IC50 under setting [1] worked out at 13000 nM.
For `CC1C(=O)OC2C(O)C34C5CC(C(C)(C)C)C36C(OC(=O)C6O)OC4(C(=O)O5)C12O` (centres unmarked) [Ginkgolide B, reference compound], the IC50 under setting [2] was found to be 427 nM.
Regarding “3-dihydroxy-1,10-methylenedioxy-14-epi-Ginkgolide B [formula (III)]”, the “platelet aggregation inhibiting activity compared with Ginkgolide B” value is listed as “low than the Ginkgolide B in its activity”. For the same molecule, under setting [3], the IC50 was determined as 6980 nM.
As for `C[C@@H]1C(=O)OC2C3OCOC4C(=O)OC5OC6(C(=O)OC7CC(C(C)(C)C)C54C736)C21O` (some centres unmarked) [formula (II), 1,10-methylenedioxy-Ginkgolide B], the “platelet aggregation inhibiting activity compared with Ginkgolide B” value is given as “low than the Ginkgolide B in its activity”. Also, the IC50 under setting [2] stood at 1050 nM.
For the molecule `C[C@@H]1C(=O)O[C@H]2C[C@@]34[C@H]5C[C@@H](C(C)(C)C)[C@]36[C@@H](OC(=O)[C@@H]6O)O[C@@]4(C(=O)O5)[C@]21O` [Ginkgolide A, reference compound], the IC50 under setting [1] was 1750 nM.
As to “3-dehydroxy- 1,10-methylenedioxy-Ginkgolide B [formula (IV)]”, the “platelet aggregation inhibiting activity compared with Ginkgolide B” value is on record as “low than the Ginkgolide B in its activity”. For the same molecule, the IC50 under setting [3] came out at 4950 nM.
Regarding `C[C@@H]1C(=O)OC2C1C13OC4OC(=O)C(O)C45C(C(C)(C)C)CC(OC1=O)C35C2O` (some centres unmarked) [formula (I-a), 3-dehydroxy-Ginkgolide B], the “platelet aggregation inhibiting activity compared with Ginkgolide B” value is recorded as “low than the Ginkgolide B in its activity”. The IC50 under setting [1] was 2640 nM.

Values taken from patent publication US5466829A, “Ginkgolide derivatives and a process for preparing them” (priority 1991, dated 1995).
